# Assay results: patent US20240279281A1, “Peptide Inhibitors of Interleukin-23 Receptor” (Janssen Pharmaceutica NV, priority 2023, published 2024)
# Read-outs that look alike come from different tables or passages of the source. Starred links: 1 amine or outer side, 2 acyl side, 3 side chain; linkers in the order of their positions; H or OH if unused. Positions of bridges follow the written chain, without caps; N, C: chain ends. Non-standard residues stand in square brackets, D forms with d. Residues, ends and D or L forms follow the SMILES beside them. Groups on a side chain read outwards from the residue. Primed or numbered codes have the meaning given here. *: point of attachment. AEF(G) = 2-amino-3-(4-(2-guanidinoethoxy)phenyl)propanoic acid, N=C(N)NCCOc1ccc(C[C@H](N[*:1])C(=O)[*:2])cc1; X22 = CN(CCOCCOCC(=O)N(C)CCOCCOCC(=O)*)C(=O)CC[C@@H](C(=O)O)N(C)C(=O)CCCCCCCCCCCCCCCCCc1nnn[nH]1; Trp(7-(3-AcNH-Ph)) = CC(=O)Nc1cccc(-c2cccc3c(C[C@H](N)C(=O)O)c[nH]c23)c1; PEG2NMePEG2NMegENMeCl8Tetrazole = not defined here; X12 = O=C([C@H](Cc1ccc2cc(F)ccc2c1)N[*:1])[*:2]; 2Nal(6-OH) = N[C@@H](Cc1ccc2cc(O)ccc2c1)C(=O)O; Trp(7-Me) = Cc1cccc2c(C[C@H](N)C(=O)O)c[nH]c12; d(hLys(Me3)) = C[N+](C)(C)CCCCC[C@@H](N)C(=O)O; 3Pal(5-Me) = Cc1cncc(C[C@H](N)C(=O)O)c1; γGlu = O=C(O)[C@H](CCC(=O)[*:2])N[*:1]; AEF = NCCOc1ccc(C[C@H](N)C(=O)O)cc1; 3Pal = N[C@@H](Cc1cccnc1)C(=O)O; Lys(Me) = CNCCCC[C@H](N)C(=O)O; Pen = CC(C)(S)[C@H](N)C(=O)O; PEG2′ = not defined here; Thp = NC1(C(=O)O)CCOCC1; Sar = CNCC(=O)O
# T1: IL-23R (Homo sapiens, UniProt Q5VWK5)
# T1 construct: host or cells: HEK293
# T1 sequence (Q5VWK5 24-629): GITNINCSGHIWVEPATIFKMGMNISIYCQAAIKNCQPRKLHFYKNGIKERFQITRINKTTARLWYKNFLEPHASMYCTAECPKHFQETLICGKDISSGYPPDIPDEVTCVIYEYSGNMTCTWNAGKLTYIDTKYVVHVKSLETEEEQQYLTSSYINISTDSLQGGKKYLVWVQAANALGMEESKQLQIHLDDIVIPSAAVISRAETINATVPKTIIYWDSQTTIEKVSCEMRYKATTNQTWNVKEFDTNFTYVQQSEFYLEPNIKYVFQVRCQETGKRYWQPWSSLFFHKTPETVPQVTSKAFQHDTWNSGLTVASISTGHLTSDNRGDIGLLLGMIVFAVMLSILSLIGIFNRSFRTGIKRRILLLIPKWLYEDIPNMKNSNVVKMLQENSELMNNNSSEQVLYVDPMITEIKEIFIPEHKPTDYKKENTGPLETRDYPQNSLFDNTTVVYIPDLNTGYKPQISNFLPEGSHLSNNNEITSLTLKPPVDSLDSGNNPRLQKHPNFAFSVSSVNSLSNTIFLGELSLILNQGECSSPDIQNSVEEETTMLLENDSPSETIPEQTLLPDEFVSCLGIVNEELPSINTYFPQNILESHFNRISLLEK
# T2: IL-23-stimulated phosphorylated STAT3 in peripheral blood mononuclear cells (PBMCs) (Homo sapiens, UniProt Q5VWK5)
# T2 sequence (Q5VWK5 24-629): T1 sequence (Q5VWK5 24-629)
# T3: interleukin-23 receptor (IL-23R) (UniProt Q5VWK5 24-629, limits assumed)
# T3 sequence (looked up): T1 sequence (Q5VWK5 24-629)
# B1: SEQ ID NO: 11 (peptide)
# peptide: XXNTXXXXXXENXX
# modifications: MeCO-k(Me)3-Pen(3)-N-T-7(3NAcPh)W-K(Ac)-Pen(3)-AEF(G)-6OH2Nal-THP-E-N-5MePyridinAla-Sar-CONH2
# Assays:
# [1] = disulfide bond, 20-membered ring, I2/MeOH, 20% MeCN/H2O
# IL-23R = molecular target: T1, IL-23R; assay: IL23R Reporter Assay; format: cell-based
# Description: Compounds were serially diluted in 100% (v/v) DMSO) and plated using an Echo acoustic dispenser (Labcyte) into 1536-well non-treated black assay plates (Corning #9146). […] After 5 h at 37° C., 5% CO2, 95% relative humidity, cells were placed at 20° C. and treated with BioGlo reagent (Promega) according to the Manufacturer's instructions. Luminescence was measured on a Pherastar FSX (BMG LabTech).
# [2] = molecular target: T2, IL-23-stimulated phosphorylated STAT3 in peripheral blood mononuclear cells (PBMCs); assay: PBMC pSTAT3 Assay; format: cell-based
# Outline: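 Anti-CD3/IL-1β-expanded donor PBMCs (day 4) starved ~4 h in RPMI-0.1% BSA, preincubated 30 min with peptide, then stimulated 30 min at 37° C with 5 ng/mL IL-23 (final). Lysates read for phospho-STAT3 by Meso Scale phospho-STAT panel immunoassay.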
# [3] = molecular target: T3, interleukin-23 receptor (IL-23R); assay: cell-based or functional assay
# [4] = HEK293 cells containing IL-23R, IL-12Rβ1 and STAT-inducible luciferase reporter, 10 ng/mL IL-23, 5 h, read-out: IC50
# [5] = PBMCs from healthy donors, IL-23 5 ng/mL, 30 minutes, read-out: PBMC pSTAT3 IC50
molecule,measurement,setting,value
"CC(=O)NCCCC[C@@H]1NC(=O)[C@H](Cc2c[nH]c3c(C)cccc23)NC(=O)[C@H]([C@@H](C)O)NC(=O)[C@H](CC(N)=O)NC(=O)[C@@H](NC(=O)[C@@H](CCCNC(=N)N)NC(C)=O)C(C)(C)SSC(C)(C)[C@@H](C(=O)N[C@@H](Cc2ccc(OCCN)cc2)C(=O)N[C@@H](Cc2ccc3cc(F)ccc3c2)C(=O)NC2(C(=O)N[C@@H](CCC(=O)O)C(=O)N[C@@H](CC(N)=O)C(=O)N[C@@H](Cc3cccnc3)C(=O)N(C)CC(N)=O)CCOCC2)NC1=O [SEQ ID NO: 407, MeCO-r-Pen(3)-N-T-7MeW-K(Ac)-Pen(3)-AEF-6F2Nal-THP-E-N-3Pya-Sar-CONH2] (Ac-[dR][Pen]NT[Trp(7-Me)]K(Ac)[Pen][AEF][X12][Thp]EN[3Pal][Sar]-NH2; disulfide 2-7)","ring closure, yield after HPLC","[1]; from Ac-dArg-Pen-Asn-Thr-7MeTrp-Lys(Ac)-Pen-AEF-6F2Nal-THP-Glu-Asn-3Pya-Sar-NH2, 0.85 mM",22.1%
same,IC50,IL-23R; [4],< 10 nM
same,IC50,[2]; [5],0.01 to 0.1 nM
"CC(=O)N[C@H](CCCCC[N+](C)(C)C)C(=O)N[C@@H]1C(=O)N[C@@H](CC(=O)N(C)C)C(=O)N[C@@H]([C@@H](C)O)C(=O)N[C@@H](Cc2c[nH]c3c(C)cccc23)C(=O)N[C@@H](CCCCN(C)C(C)=O)C(=O)N[C@H](C(=O)N[C@@H](Cc2ccc(OCCN)cc2)C(=O)N[C@@H](Cc2ccc3cc(O)ccc3c2)C(=O)NC2(C(=O)N[C@@H](CCC(=O)O)C(=O)N[C@@H](CC(N)=O)C(=O)N[C@@H](Cc3cccnc3)C(=O)N(C)CC(=O)N(C)C)CCOCC2)C(C)(C)SSC1(C)C [SEQ ID NO: 389, MeCO-hk(Me)3-Pen(3)-N(N(Me)2)-T-7MeW-K(NMeAc)-Pen(3)-AEF-6OH2Nal-THP-E-N-3Pya-Sar-CON(Me)2] (Ac-[d(hLys(Me3))][Pen]D(NMe2)T[Trp(7-Me)][Lys(Me)](Ac)[Pen][AEF][2Nal(6-OH)][Thp]EN[3Pal][Sar]-NMe2; disulfide 2-7)","ring closure, yield after HPLC","[1]; from Ac-dhLys(Me3)-Pen-Asn(NMe2)-Thr-7MeTrp-Lys(NMeAc)-Pen-AEF-6OH2Nal-THP-Glu-Asn-3Pya-Sar-NMe2?, 0.92 mM",11%
same,IC50,IL-23R; [4],< 10 nM
same,IC50,[2]; [5],< 0.01 nM
"CC(=O)NCCCC[C@@H]1NC(=O)[C@H](Cc2c[nH]c3c(C)cccc23)NC(=O)[C@H]([C@@H](C)O)NC(=O)[C@H](CC(N)=O)NC(=O)[C@@H](NC(=O)[C@@H](CCCNC(=N)N)NC(C)=O)C(C)(C)SSC(C)(C)[C@@H](C(=O)N[C@@H](Cc2ccc(OCCN)cc2)C(=O)N[C@@H](Cc2ccc3cc(O)ccc3c2)C(=O)NC2(C(=O)N[C@@H](CCC(=O)O)C(=O)N[C@@H](CC(N)=O)C(=O)N[C@@H](Cc3cccnc3)C(=O)N(C)CC(=O)N[C@@H](CCCCNC(=O)COCCOCCN(C)C(=O)COCCOCCN(C)C(=O)CC[C@@H](C(=O)O)N(C)C(=O)CCCCCCCCCCCCCCCCCc3nnn[nH]3)C(N)=O)CCOCC2)NC1=O [SEQ ID NO: 115, MeCO-r-Pen(3)-N-T-7MeW-K(Ac)-Pen(3)-AEF-6OH2Nal-THP-E-N-3Pya-Sar-K(PEG2NMePEG2NMegENMeCl8Tetrazole)-CONH2] (Ac-[dR][Pen]NT[Trp(7-Me)]K(Ac)[Pen][AEF][2Nal(6-OH)][Thp]EN[3Pal][Sar]K(X22)-NH2; disulfide 2-7)","ring closure, yield after HPLC","[1]; from Ac-dArg-Pen-Asn-Thr-7MeTrp-Lys(Ac)-Pen-AEF-6OH2Nal-THP-Glu-Asn-3Pya-Sar-Lys(PEG2NMePEG2NMegENMeCl8Tetrazole)-NH2, 0.503 mM",8.08%
same,IC50,IL-23R,10 to 100 nM
same,IC50,"[2]; read-out: PBMC pSTAT3 IC50, PBMCs from healthy donors, IL-23 5 ng/mL, 30 minutes",0.1 to 1 nM
B1,PBMC pSTAT3 IC50,[3],< 10 pM
Ac-[dR][Pen]NT[Trp(7-(3-AcNH-Ph))]K(Ac)[Pen][AEF(G)][2Nal(6-OH)][Thp]EN[3Pal(5-Me)][Sar]-NH2 (disulfide 2-7 (inferred)) [SEQ ID NO: 15],PBMC pSTAT3 IC50,[3],< 10 pM
Ac-[dR][Pen]NT[Trp(7-Me)]K(Ac)[Pen][AEF][2Nal(6-OH)][Thp]EN[3Pal][Sar]-NH2 (disulfide 2-7 (inferred)) [SEQ ID NO: 442],PBMC pSTAT3 IC50,[3],< 10 pM
Ac-[dR][Pen]NT[Trp(7-Me)]K(Ac)[Pen][AEF][2Nal(6-OH)][Thp]EN[3Pal][Sar]K(PEG2NMePEG2NMegENMeCl8Tetrazole)-NH2 (disulfide 2-7 (inferred); reading uncertain) [SEQ ID NO: 115],PBMC pSTAT3 IC50,[3],< 1 nM
Ac-[Pen]NT[Trp(7-Me)]K(Ac)[Pen][AEF][2Nal(6-OH)][Thp]K([PEG2′-PEG2′-γGlu-C18OH])N[3Pal][Sar]-NH2 (disulfide 1-6 (inferred)) [SEQ ID NO: 273],PBMC pSTAT3 IC50,[3],< 0.1 nM
Ac-[Pen]NT[Trp(7-Me)]K(Ac)[Pen][AEF][2Nal(6-OH)][Thp]EN[3Pal][Sar]-NH2 (disulfide 1-6 (inferred)) [SEQ ID NO: 428],PBMC pSTAT3 IC50,[3],< 10 pM
